{
  "source": "patent EP4763971A1",
  "about": "“MULTI-ORGANS-ON-A-CHIP WITH INVERTED MICROWEIR STRUCTURE AS MULTI-CELL CULTURE PLATFORM AND USE THEREOF” (Humanase, priority 2023, dated 2025)",
  "key": {"[1]": {"system": "cardiomyocytes (Cardiosight-S)", "conditions": "control heart-on-a-chip, 9,000 µM cyclophosphamide, compared to cardiomyocytes not treated with cyclophosphamide", "description": "(§1) Next, cardiomyocytes (Cardiosight-S) differentiated from human pluripotent stem cells (hPSCs) from NEXEL were mixed with a hydrogel such as collagen, and then injected using a pipette into the cell inlet connected to the inner cell chamber of the multi-organ-on-a-chip prepared in Example 1, thereby injecting cardiomyocytes into the inner cell chamber.\n(§2) Next, the hydrogel comprised in the injected cardiomyocyte mixture was cured to fix the cardiomyocytes within the cell chamber. Depending on the type of hydrogel, curing is performed using different curing methods. In the case of collagen, curing was performed via temperature change by placing in an incubator for at least 1 hour, and then cardiomyocytes were continuously cultured in the incubator.\nThe culture was performed by supplying a culture medium comprising a mixture of Cardiosight-S Media supplemented with supplement (50X) and Minimum Essential Media Eagle (MEM, high-glucose, gibco) supplemented with 25 mM HEPES (4-(2-hydroxyethyl)-1-piperazineethanesulfonic acid, gibco), 10% (v/v) FBS, P/S (100 Uml-1 penicillin/100 Uml-1 streptomycin, Sigma-Aldrich Co., MO) at a certain ratio. […]"}, "[2]": {"system": "cardiomyocytes (Cardiosight-S)", "protocol": "as §1\nNext, 1 x 10^5 cultured hepatocytes (HepG2) were injected using a pipette into each cell inlet connected to the two outer cell chambers of the multi-organ-on-a-chip prepared in Example 1, thereby injecting hepatocytes into the two outer cell chambers.\nas §2\nFurther, hepatocytes were fixed and cultured using the same method. […]"}},
  "note": "Read-outs that look alike come from different tables or passages of the source.",
  "data": [
    {"smiles": "O=P1(N(CCCl)CCCl)NCCCO1", "note": "(stereo not drawn) [cyclophosphamide]", "values": [
      {"measurement": "beating rate of the cardiomyocytes increased", "setting": "[1]", "value": "31.76 ± 0.59", "unit": "%"},
      {"measurement": "effect on the beating rate of cardiomyocytes", "setting": "[2]; liver-heart-on-a-chip compared to the control heart-on-a-chip, 0, 1,000, 5,000, or 9,000 µM (FIG. 8)", "value": "more significant effect"},
      {"measurement": "beating rate of the cardiomyocytes increased", "setting": "[2]; liver-heart-on-a-chip, 9,000 µM cyclophosphamide, compared to cardiomyocytes not treated with cyclophosphamide", "value": "177.9 ± 2.56", "unit": "%"}
    ]}
  ]
}
